How the values were obtained:
[1] = Dynamic Vapour Sorption (DVS); type: physicochemical
Experimental: Sorption isotherms were obtained using a Hiden Isochema moisture sorption analyser (IGAsorp Systems Firmware V20.19.005 COM3) and operated by Isochema Hlsorp 2019 V4.02.0102. The sample was maintained at a constant temperature (25° C.) by the instrument controls. The humidity was controlled by mixing streams of dry and wet nitrogen, with a total flow of 250 ml.min-1. The weight change of the sample was monitored as a function of humidity by a microbalance (accuracy +/− 0.001 mg).
A defined amount of sample was placed in a tared mesh stainless steel basket under ambient conditions. A typical experimental run consisted of three cycles (desorption, sorption, desorption, sorption, desorption and sorption) at a constant temperature (25° C.) and 10% RH intervals over a 0-90% RH range (60 minutes for each humidity level).
This is to obtain in-depth profiling of the material towards humidity at these elevated levels.

[2] = molecular target: hERG (Homo sapiens, UniProt Q12809); test: in vitro
Excerpt: This assay is employed as a screen to assess potential risks for QT interval prolongation.

[3] = tested on: Sprague-Dawley rats; test: Maximum tolerated dose followed by 7-day repeat-dose toxicology in rats (Study 700040); type: in vivo; conditions: rat
Experimental: The study consisted of 2 parts. […] The doses used in part 1 were 15, 30, 50, 65, and 75 mg/kg. Each subsequent dose was administered following at least 24 hours from the commencement of the previous dose. There were 2 males and 2 females in each dose group.
During Phase I, assessments of mortality, clinical signs and body weights were performed. […] The necropsy consisted of an external examination, including reference to all clinically-recorded lesions, as well as a detailed internal examination.
During Phase 2, assessments of mortality, clinical signs and body weights were performed. Following dosing, all animals were euthanized and subjected to a necropsy examination on Day 8. The necropsy consisted of an external examination, including reference to all clinically-recorded lesions, as well as a detailed internal examination. Study plan specific tissues/organs were collected and retained, then trimmed and preserved promptly once the animal was euthanized but these were not further examined microscopically.

[4] = tested on: Chinese hamster ovary (CHO)-K1 cells; test: In vitro micronucleus test (flow cytometry); type: cell-based
Excerpt: The treatment with the vehicle/negative and positive controls was concurrently performed.

[5] = tested on: Salmonella typhimurium tester strains TA98, TA100, TA1535, and TA1537; test: Bacterial Reverse Mutation Test (Ames test), S. typhimurium; conditions: for cytotoxicity: 5000 μg/plate
[6] = intranasal 75 mg/kg for 7 consecutive days

Sequence of hERG (Q12809 whole entry): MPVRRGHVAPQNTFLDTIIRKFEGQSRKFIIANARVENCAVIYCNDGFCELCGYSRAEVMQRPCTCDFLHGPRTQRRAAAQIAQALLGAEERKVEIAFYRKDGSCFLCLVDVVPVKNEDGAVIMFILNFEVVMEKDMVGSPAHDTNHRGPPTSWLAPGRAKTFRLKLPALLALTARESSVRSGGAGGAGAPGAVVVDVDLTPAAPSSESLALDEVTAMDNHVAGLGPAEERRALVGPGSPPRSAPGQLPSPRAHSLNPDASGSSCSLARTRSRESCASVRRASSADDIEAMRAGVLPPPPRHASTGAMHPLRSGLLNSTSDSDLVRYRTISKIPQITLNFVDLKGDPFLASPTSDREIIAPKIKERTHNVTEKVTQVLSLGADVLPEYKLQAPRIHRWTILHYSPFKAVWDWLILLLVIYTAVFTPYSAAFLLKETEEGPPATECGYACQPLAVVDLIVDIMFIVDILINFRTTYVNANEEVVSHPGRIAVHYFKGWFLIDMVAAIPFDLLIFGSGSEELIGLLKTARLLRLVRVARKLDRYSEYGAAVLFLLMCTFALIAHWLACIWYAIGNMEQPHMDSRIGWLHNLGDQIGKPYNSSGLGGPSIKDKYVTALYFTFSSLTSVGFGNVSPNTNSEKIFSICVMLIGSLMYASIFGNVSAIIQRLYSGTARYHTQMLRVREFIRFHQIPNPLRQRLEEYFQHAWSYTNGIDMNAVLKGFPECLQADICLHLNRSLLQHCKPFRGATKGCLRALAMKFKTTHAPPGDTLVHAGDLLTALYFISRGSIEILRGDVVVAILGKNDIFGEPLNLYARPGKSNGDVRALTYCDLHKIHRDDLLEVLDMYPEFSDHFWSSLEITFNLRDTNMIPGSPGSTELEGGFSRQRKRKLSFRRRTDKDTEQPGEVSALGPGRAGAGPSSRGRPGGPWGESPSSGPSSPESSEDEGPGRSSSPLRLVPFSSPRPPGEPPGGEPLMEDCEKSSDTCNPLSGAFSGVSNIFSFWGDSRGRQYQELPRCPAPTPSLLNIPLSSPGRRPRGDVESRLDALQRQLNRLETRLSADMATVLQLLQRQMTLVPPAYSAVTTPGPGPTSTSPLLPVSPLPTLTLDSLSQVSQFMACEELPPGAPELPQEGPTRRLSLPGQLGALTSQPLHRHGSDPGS

In the case of `COc1ccc2[nH]cc(CCN(C)C)c2c1.Cl` [5MeODMT Hydrochloride, lot 20/20/126-FP, 5MeODMT Hydrochloride], the “state of material upon completion of the DVS cycle” value ([1]; 0-90% RH cycles) is reported as “completed deliquesced”, the moisture uptake ([1]; 25° C., 0-70% RH) is reported as “less than 0.3 % w/w” and the moisture uptake ([1]; 25° C., first sorption cycle, 70-80% RH) is reported as “Approximately 23 w/w”. The “mass above the minimum recorded at 0% RH after subsequent cycles (retention of moisture)” value ([1]; 25° C., subsequent sorption and desorption cycles) was 6-9 % w/w and the further moisture uptake ([1]; 25° C., up to and when held at 90% RH) was 20 % w/w.
In the case of `COc1ccc2[nH]cc(CCN(C)C)c2c1.Cl` [5MeODMT Hydrochloride, lot 20/45/006-FP, 5MeODMT Hydrochloride], the moisture increase ([1]; 70-75% RH) is reported as “ca. 0.46 % w/w”, the further moisture uptake ([1]; 75-80% RH) is reported as “ca. 7%” and the further moisture uptake ([1]; 80-85%) is reported as “ca. 40%”. The stability towards humidity ([1]; DVS) was “robustness between 0-75% RH” and the “state of solids post DVS analysis” value ([1]; modified DVS up to 85% RH, likely occurred above 80% RH) was “Complete deliquescence”.
In the case of `COc1ccc2[nH]cc(CCN(C)C)c2c1` [5MeODMT, 5-methoxy-N,N-dimethyltryptamine], the inhibition at 30 µM [2] is reported as 77.8 ± 7.4%, the body weight gain [3, 6] is reported as “slightly suppressed for both sexes” and the “macroscopic observation: dark/pale area of the lungs” value [3, 6] is reported as 2/10. For the same compound, the mortality [3, 6] was “no mortalities”, the tolerability [3, 6] was “tolerated” and the clinical signs ([3]; single intranasal 15-75 mg/kg) was “incoordination, shallow or increased respiration, sneezing, salivation, decreased activity, piloerection, white pasty material around penis (for males), ptosis, laying on the cage floor, and sensitive to touch and shaking”. The “mortality and gross pathology” value ([3]; single intranasal 15-75 mg/kg) was “no mortality and gross pathology findings at any dose”, the “time to resolution of most clinical signs post dose” value ([3]; single intranasal 15-75 mg/kg) was ≤ 1 h and the tolerability ([3]; single intranasal, dose levels up to 75 mg/kg) was “tolerated”. For the same compound, the body weight gain ([3]; single intranasal, females at 75 mg/kg) was “slightly suppressed”, the “chromosome-damaging potential (conclusion)” value ([4]; CHO-K1 cells) was “no chromosome-damaging potential” and the cytotoxicity or precipitation ([4]; up to 300 μg/mL, all treatment periods) was “No cytotoxicity or precipitation”. The cytotoxicity ([5]; absence of S9 mix) was “higher levels of cytotoxicity”, the cytotoxicity ([5]; presence of S9 mix) was “remained slight” and the “revertant colonies in repeated test” value ([5]; TA1537 and TA98, absence of S9 mix, 15-2000 μg per plate) was “no increases in the revertant colonies number per plate”. The “mutagenic potential (conclusion)” value ([5]; all bacteria strains tested, absence or presence of S9) was “no mutagenic potential”.
